# In patent US20260285846A1, “REV-ERB AGONISTS FOR TH17-MEDIATED INFLAMMATORY DISORDERS” (UNIVERSITY OF FLORID RESEARCH FOUNDATION, iNCORPORATED, priority 2021, published 2026):
# Biological target: REV-ERBα LBD (Homo sapiens, UniProt P20393, DEL324-422)
# Assay: biochemical
# Details: FRET assay; 6xHistag-REV-ERBα LBD with FITC-labeled SMRT corepressor peptide; read-out: REVERBα (Agonism of REV-ERBα, EC50)
# Method: TR-FRET corepressor interaction assay. The time-resolved fluorescence resonance energy transfer (TR-FRET) assay was performed in black low-volume 384-well plates (Greiner). Each well contained 4 nM 6×Histag-REV-ERBα LBD (human; residues 281-614 A324-422) or 6×Histag-REV-ERBα LBD (human; residues 381-579) protein expressed in and purified from Escherichia coli using nickel affinity and size exclusion chromatography; 1 nM LanthaScreen Elite Tb-anti-HIS Antibody (Thermo Fisher Scientific); and 400 nM FITC-labeled peptide derived from the SMRT corepressor ([…]) containing a N-terminal FITC label with a six-carbon linker (Ahx) and an amidated C-terminus for stability (synthesized by LifeTein) in TR-FRET buffer (20 mM potassium phosphate, pH 7.4, 50 mM potassium chloride, 1 mM dithiothreitol, and 0.005% Tween-20). Ligand stocks were prepared via serial dilution in DMSO, added to wells in triplicate, and plates were incubated at 4° C. for 2 h and read using a BioTek Synergy Neo multimode plate reader. The Tb donor was excited at 340 nm; its fluorescence emission was monitored at 495 nm, and the acceptor FITC emission was measured at 520 nm; and the TR-FRET ratio was calculated as the signal at 520 nm divided by the signal at 495 nm. Data were plotted using GraphPad Prism as TR-FRET ratio vs. ligand concentration and fit to sigmoidal dose response curve equation.
# Exemplary compounds of the present disclosure were assayed as described above to assess agonism of REV-ERBα. Results of the FRET assay are shown in Table 2 below (A: EC50<100 nM; B: EC50 100 nM-1000 nM; C: EC50>1000 nM; NT: not tested).
# REV-ERBα LBD, sequence (P20393 with tags, fused parts or gaps DEL324-422): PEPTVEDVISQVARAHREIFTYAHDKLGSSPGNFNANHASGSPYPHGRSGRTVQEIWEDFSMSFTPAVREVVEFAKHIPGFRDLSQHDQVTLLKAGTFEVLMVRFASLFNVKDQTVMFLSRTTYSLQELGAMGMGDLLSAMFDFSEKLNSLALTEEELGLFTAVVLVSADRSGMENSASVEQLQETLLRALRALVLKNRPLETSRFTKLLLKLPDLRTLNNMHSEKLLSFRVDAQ
# REV-ERBα LBD, sequence (Q9Y618 2335-2356 partner limits assumed): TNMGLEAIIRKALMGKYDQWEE
row,EC50 [nM],Compound
1,< 100,"CC(C)(C)Cn1cc([C@H](NS(=O)(=O)C2CC2)C(F)(F)F)c2ccc(-c3cc(F)ccc3C(F)(F)F)cc21 [Compound 3, (S)—N-(2,2,2-trifluoro-1-(6-(5-fluoro-2-(trifluoromethyl)phenyl)-1-neopentyl-1H-indol-3-yl)ethyl)cyclopropanesulfonamide]"
2,< 100,"CC(C)(C)Cn1cc([C@H](NS(=O)(=O)C2CC2)C(F)F)c2cc(F)c(-c3cc(F)cnc3C(F)(F)F)cc21 [Compound 132, (S)—N-(2,2-difluoro-1-(5-fluoro-6-(5-fluoro-2-(trifluoromethyl)pyridin-3-yl)-1-neopentyl-1H-indol-3-yl)ethyl)cyclopropanesulfonamide]"
3,< 100,"N#Cc1nccc(C(F)(F)F)c1-c1nc2c(cc1F)c([C@H](NS(=O)(=O)C1CC1)C(F)F)cn2C1CCC1 [Compound 160, N-((1S)-1-(6-(2-cyano-4-(trifluoromethyl)pyridin-3-yl)-1-cyclobutyl-5-fluoro-1H-pyrrolo[2,3-b]pyridin-3-yl)-2,2-difluoroethyl)cyclopropanesulfonamide]"
4,< 100,"CC(C)(C)Cn1cc([C@H](NS(=O)(=O)C2CC2)C(F)F)c2ccc(-c3ncccc3Cl)cc21 [Compound 85, (S)—N-(1-(6-(3-chloropyridin-2-yl)-1-neopentyl-1H-indol-3-yl)-2,2-difluoroethyl)cyclopropanesulfonamide]"
5,< 100,"Cc1ncccc1-c1cc2c(cc1F)c(C(C)NS(=O)(=O)C1CC1)cn2CC(C)(C)C (stereo not drawn) [Compound 36, N-(1-(5-fluoro-6-(2-methylpyridin-3-yl)-1-neopentyl-1H-indol-3-yl)ethyl)cyclopropanesulfonamide]"
6,< 100,"CC(C)(C)Cn1cc([C@H](NS(=O)(=O)C2CC2)C(F)F)c2cc(F)c(-c3cccnc3C(F)F)cc21 [Compound 97, (S)—N-(1-(6-(2-(difluoromethyl)pyridin-3-yl)-5-fluoro-1-neopentyl-1H-indol-3-yl)-2,2-difluoroethyl)cyclopropanesulfonamide]"
7,< 100,"O=c1ccc(-c2nc3c(cc2F)c([C@H](NS(=O)(=O)C2CC2)C(F)F)cn3C2CCC2)c(C(F)(F)F)[nH]1 [Compound 175, (S)—N-(1-(1-cyclobutyl-5-fluoro-6-(6-oxo-2-(trifluoromethyl)-1,6-dihydropyridin-3-yl)-1H-pyrrolo[2,3-b]pyridin-3-yl)-2,2-difluoroethyl)cyclopropanesulfonamide]"
8,< 100,"CC(C)(C)Cn1cc([C@H](NS(=O)(=O)C2CC2)C(F)F)c2cc(F)c(-c3c(C#N)cccc3C(F)F)cc21 [Compound 109, N-((1S)-1-(6-(2-cyano-6-(difluoromethyl)phenyl)-5-fluoro-1-neopentyl-1H-indol-3-yl)-2,2-difluoroethyl)cyclopropanesulfonamide]"
9,< 100,"CC(C)(C)Cn1cc([C@H](NS(=O)(=O)C2CC2)C(F)F)c2cc(F)c(-c3cc(F)cnc3C(F)(F)F)nc21 [Compound 148, (S)—N-(2,2-difluoro-1-(5-fluoro-6-(5-fluoro-2-(trifluoromethyl)pyridin-3-yl)-1-neopentyl-1H-pyrrolo[2,3-b]pyridin-3-yl)ethyl)cyclopropanesulfonamide]"
10,< 100,"CC(C)(C)Cn1cc([C@H](NS(=O)(=O)C2CC2)C(F)F)c2ccc(-c3cc(F)cnc3C#N)cc21 [Compound 86, (S)—N-(1-(6-(2-cyano-5-fluoropyridin-3-yl)-1-neopentyl-1H-indol-3-yl)-2,2-difluoroethyl)cyclopropanesulfonamide]"
11,< 100,"CC(C)(C)Cn1cc([C@H](NS(=O)(=O)C2CC2)C(F)(F)F)c2cc(F)c(-c3ccccc3OC(F)(F)F)cc21 [Compound 5, (S)—N-(2,2,2-trifluoro-1-(5-fluoro-1-neopentyl-6-(2-(trifluoromethoxy)phenyl)-H-indol-3-yl)ethyl)cyclopropanesulfonamide]"
12,< 100,CC(NS(=O)(=O)C1CC1)c1cn(CC(C)(C)C)c2cc(C3CCOCC3)c(F)cc12 (stereo not drawn) [Compound 35]
13,< 100,"O=S(=O)(N[C@@H](c1cn(C2CCC2)c2nc(-c3ccc(F)cc3C(F)(F)F)c(F)cc12)C(F)F)C1CC1 [Compound 155, (S)—N-(1-(1-cyclobutyl-5-fluoro-6-(4-fluoro-2-(trifluoromethyl)phenyl)-1H-pyrrolo[2,3-b]pyridin-3-yl)-2,2-difluoroethyl)cyclopropanesulfonamide]"
14,< 100,"CC(NS(=O)(=O)C1CC1)c1cn(CC(C)(C)C)c2cc(-c3cnccc3Cl)c(F)cc12 (stereo not drawn) [Compound 73, N-[1-[6-(4-chloro-3-pyridyl)-1-(2,2-dimethylpropyl)-5-fluoro-indol-3-yl]ethyl]cyclopropanesulfonamide]"

# More lines, now with the values behind:
row,Compound,EC50 [nM]
1,"CC(C)(C)Cn1cc([C@H](NS(=O)(=O)C2CC2)C(F)F)c2ccc(-c3c(C(F)F)ccnc3C#N)cc21 [Compound 118, (S)—N-(1-(6-(2-cyano-4-(difluoromethyl)pyridin-3-yl)-1-neopentyl-1H-indol-3-yl)-2,2-difluoroethyl)cyclopropanesulfonamide]",< 100
2,"CC(NS(=O)(=O)C1CC1)c1cn(CC(C)(C)C)c2cc(C3CCOCC3)ccc12 (single isomer, unassigned) [Compound 24, (S or R) N-(1-(1-neopentyl-6-(tetrahydro-2H-pyran-4-yl)-1H-indol-3-yl)ethyl)cyclopropanesulfonamide]",100 to 1000
3,"CC(C)(C)Cn1cc([C@H](NS(=O)(=O)C2CC2)C(F)F)c2cc(F)c(-c3ncccc3Cl)cc21 [Compound 90, (S)—N-(1-(6-(3-chloropyridin-2-yl)-5-fluoro-1-neopentyl-1H-indol-3-yl)-2,2-difluoroethyl)cyclopropanesulfonamide]",< 100
4,"CC(C)(C)Cn1cc([C@H](NS(=O)(=O)C2CC(F)(F)C2)C(F)F)c2ccc(-c3ccccc3C(F)(F)F)cc21 [Compound 11, (S)—N-(2,2-difluoro-1-(1-neopentyl-6-(2-(trifluoromethyl)phenyl)-1H-indol-3-yl)ethyl)-3,3-difluorocyclobutane-1-sulfonamide]",< 100
5,"CC(NS(=O)(=O)C1CC1)c1cn(CC(C)(C)C)c2cc(-c3ncccc3C(F)(F)F)c(F)cc12 (single isomer, unassigned) [Compound 17, (R or S)—N-(1-(5-fluoro-1-neopentyl-6-(3-(trifluoromethyl)pyridine-2-yl)-1H-indol-3-yl)ethyl)cyclopropane sulfonamide]",100 to 1000
6,"CC(C)(C)Cn1cc([C@H](NS(=O)(=O)C2CC2)C(F)F)c2cc(F)c(-c3ncccc3C(F)F)cc21 [Compound 111, (S)—N-(1-(6-(3-(difluoromethyl)pyridin-2-yl)-5-fluoro-1-neopentyl-1H-indol-3-yl)-2,2-difluoroethyl)cyclopropanesulfonamide]",< 100
7,"CC(C)(C)Cn1cc([C@H](NS(=O)(=O)C2CC2)C(F)F)c2ccc(-c3c(F)cccc3C(F)F)cc21 [Compound 104, (S)—N-(1-(6-(2-(difluoromethyl)-6-fluorophenyl)-1-neopentyl-1H-indol-3-yl)-2,2-difluoroethyl)cyclopropanesulfonamide]",< 100
8,"CC(C)(C)Cn1cc([C@H](NS(=O)(=O)C2CC2)C(F)F)c2ccc(-c3ncccc3C(F)F)cc21 [Compound 100, (S)—N-(1-(6-(3-(difluoromethyl)pyridin-2-yl)-1-neopentyl-1H-indol-3-yl)-2,2-difluoroethyl)cyclopropanesulfonamide]",< 100
9,CN(C)S(=O)(=O)N[C@@H](c1cn(CC(C)(C)C)c2cc(-c3c(C#N)cccc3C(F)(F)F)ccc12)C(F)F [Compound 75],< 100
10,"CC(NS(=O)(=O)C1CC1)c1cn(CC(C)(C)C)c2cc(-c3cnccc3C#N)c(F)cc12 (single isomer, unassigned) [Compound 32, (R or S) N-(1-(6-(4-cyanopyridin-3-yl)-5-fluoro-1-neopentyl-1H-indol-3-yl)ethyl)cyclopropanesulfonamide]",< 100
11,"CC(C)(C)Cn1cc([C@H](NS(=O)(=O)C2CC2)C(F)F)c2ccc(-c3ccc(F)cc3C(F)F)cc21 [Compound 105, (S)—N-(1-(6-(2-(difluoromethyl)-4-fluorophenyl)-1-neopentyl-1H-indol-3-yl)-2,2-difluoroethyl)cyclopropanesulfonamide]",< 100
12,"CC(C)(C)Cn1cc(C(NS(=O)(=O)C23CC(C2)C3)C(F)F)c2cc(F)c(-c3ccccc3C(F)(F)F)cc21 (stereo not drawn) [Compound 41, N-(2,2-difluoro-1-(5-fluoro-1-neopentyl-6-(2-(trifluoromethyl)phenyl)-1H-indol-3-yl)ethyl)bicyclo[1.1.1]pentane-1-sulfonamide]",< 100
13,"CC(C)(C)Cn1cc([C@H](NS(=O)(=O)C2CC2)C(F)F)c2cc(F)c(-c3cccnc3C(F)(F)F)cc21 [Compound 38, (S)—N-(2,2-difluoro-1-(5-fluoro-1-neopentyl-6-(2-(trifluoromethyl)pyridin-3-yl)-1H-indol-3-yl)ethyl)cyclopropanesulfonamide]",< 100
